Measured values reported in PubChem BioAssay AID256 (DTP/NCI, 2004).
Toxic doses and inconclusive results are not listed. The calls were made as follows: active = survival T/C of 150% or more; inactive = T/C below 125% in these data.

Test system: CD2F1 mice, L1210 leukemia ip, survival T/C
Experiment: NCI In Vivo Anticancer Drug Screen. Data for tumor model L1210 Leukemia (intraperitoneal) in CD2F1 (CDF1) mice
Conditions: higher = longer survival
Summary of the method: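 Transplantable tumor in mice; compound-treated vs vehicle-treated groups. Read-out = treated/control ratio of the measured endpoint.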

[1] = endpoint: mean survival time, dose: 100.0 mg/kg/injection, schedule: Q04DX003 (ip), vehicle: saline with Tween-80
[2] = endpoint: mean survival time, dose: 200.0 mg/kg/injection, schedule: Q04DX003 (ip), vehicle: saline with Tween-80
[3] = endpoint: mean survival time, dose: 400.0 mg/kg/injection, schedule: Q04DX003 (ip), vehicle: saline with Tween-80
[4] = endpoint: mean survival time, dose: 50.0 mg/kg/injection, schedule: Q01DX009 (ip), vehicle: saline with Tween-80
[5] = endpoint: mean survival time, dose: 100.0 mg/kg/injection, schedule: Q01DX009 (ip), vehicle: saline with Tween-80
[6] = endpoint: mean survival time, dose: 100.0 mg/kg/injection, schedule: Q04DX002 (ip), vehicle: saline with Tween-80
[7] = endpoint: mean survival time, dose: 200.0 mg/kg/injection, schedule: Q04DX002 (ip), vehicle: saline with Tween-80
[8] = endpoint: mean survival time, dose: 400.0 mg/kg/injection, schedule: Q04DX002 (ip), vehicle: saline with Tween-80
[9] = endpoint: mean survival time, dose: 100.0 mg/kg/injection, schedule: Q01DX009 (ip), vehicle: other
[10] = endpoint: mean survival time, dose: 200.0 mg/kg/injection, schedule: Q01DX009 (ip), vehicle: other
[11] = endpoint: mean survival time, dose: 200.0 mg/kg/injection, schedule: Q01DX009 (ip), vehicle: saline with Tween-80
[12] = endpoint: mean survival time, dose: 400.0 mg/kg/injection, schedule: Q01DX009 (ip), vehicle: saline with Tween-80
[13] = endpoint: mean survival time, dose: 6.25 mg/kg/injection, schedule: Q04DX003 (ip), vehicle: other
[14] = endpoint: mean survival time, dose: 12.5 mg/kg/injection, schedule: Q04DX003 (ip), vehicle: other

Measured: T/C

C=C1C(=O)OC2CC3(C)CCCC(C)C34OC4C12 (stereo not given)
inactive: endpoint: mean survival time, dose: 50.0 mg/kg/injection, schedule: Q04DX002 (ip), vehicle: saline 90 % of control | endpoint: mean survival time, dose: 100.0 mg/kg/injection, schedule: Q04DX002 (ip), vehicle: saline 98 % of control | endpoint: mean survival time, dose: 200.0 mg/kg/injection, schedule: Q04DX002 (ip), vehicle: saline 114 % of control

[C-]#[O+].[C-]#[O+].[C-]#[O+].[C-]#[O+].[C-]#[O+].[C-]#[O+].[W]
inactive: [1] 95 % of control | [2] 97 % of control | [3] 101 % of control

COc1ccccc1C=NC(C)(C)CO
inactive: endpoint: mean survival time, dose: 75.0 mg/kg/injection, schedule: Q01DX001 (ip), vehicle: other 102 % of control | endpoint: mean survival time, dose: 150.0 mg/kg/injection, schedule: Q01DX001 (ip), vehicle: other 97 % of control | endpoint: mean survival time, dose: 300.0 mg/kg/injection, schedule: Q01DX001 (ip), vehicle: other 97 % of control

C1=CC2C=CC12 (stereo not given)
inactive: [4] 105 % of control | [5] 108 % of control | [1] 95 % of control | [2] 104 % of control

COc1cc(CCN2CC3C(C(=O)O)C4C=CC3(C2)O4)ccc1OCc1ccccc1 (stereo not given)
inactive: [6] 95 % of control | [7] 95 % of control | [8] 98 % of control

NC1=NCNC(=O)N1
inactive: endpoint: mean survival time, dose: 6.25 mg/kg/injection, schedule: Q04DX003 (ip), vehicle: saline 102 % of control | endpoint: mean survival time, dose: 12.5 mg/kg/injection, schedule: Q04DX003 (ip), vehicle: saline 91 % of control | endpoint: mean survival time, dose: 25.0 mg/kg/injection, schedule: Q04DX003 (ip), vehicle: saline 93 % of control | endpoint: mean survival time, dose: 50.0 mg/kg/injection, schedule: Q04DX003 (ip), vehicle: saline 98 % of control | endpoint: mean survival time, dose: 100.0 mg/kg/injection, schedule: Q04DX003 (ip), vehicle: saline 96 % of control | endpoint: mean survival time, dose: 200.0 mg/kg/injection, schedule: Q04DX003 (ip), vehicle: saline 96 % of control | endpoint: mean survival time, dose: 400.0 mg/kg/injection, schedule: Q04DX003 (ip), vehicle: saline 98 % of control

COC(=O)c1cccn1C(=O)c1ccc(C)c(OCc2ccccc2)c1[N+](=O)[O-]
inactive: [6] 86 % of control | [7] 93 % of control | [8] 93 % of control

O=C1NCCN1c1ccccc1[N+](=O)[O-]
inactive: endpoint: mean survival time, dose: 12.5 mg/kg/injection, schedule: Q01DX009 (ip), vehicle: other 96 % of control | endpoint: mean survival time, dose: 25.0 mg/kg/injection, schedule: Q01DX009 (ip), vehicle: other 91 % of control | endpoint: mean survival time, dose: 50.0 mg/kg/injection, schedule: Q01DX009 (ip), vehicle: other 96 % of control | [9] 108 % of control | [10] 101 % of control

CN(C1=CC(=O)C(C)(C)c2ccccc21)C1CCCCC1
inactive: [1] 95 % of control | [2] 91 % of control | [3] 94 % of control

CCN(CC)C(=O)CS(=O)(=O)c1ccc(C)cc1
inactive: [5] 100 % of control | [11] 100 % of control | [12] 101 % of control

CC(=O)Nc1ncc2ccccc2c1-c1ccc(NC(=O)CCN(CCCl)CCCl)cc1
inactive: [13] 101 % of control | [14] 111 % of control | endpoint: mean survival time, dose: 25.0 mg/kg/injection, schedule: Q04DX003 (ip), vehicle: other 112 % of control

CCNC(=O)OCc1cn2c(c1COC(=O)NCC)CCC2
inactive: endpoint: mean survival time, dose: 0.78 mg/kg/injection, schedule: Q04DX003 (ip), vehicle: other 101 % of control | endpoint: mean survival time, dose: 1.56 mg/kg/injection, schedule: Q04DX003 (ip), vehicle: other 87 % of control | endpoint: mean survival time, dose: 3.13 mg/kg/injection, schedule: Q04DX003 (ip), vehicle: other 92 % of control | [13] 92 % of control | [14] 97 % of control

O=C1OC(c2ccccc2)(c2ccccc2)C(=O)N1c1ccc(Br)cc1
inactive: endpoint: median survival time, dose: 3.13 mg/kg/injection, schedule: Q04DX002 (ip), vehicle: saline with Tween-80 100 % of control | endpoint: median survival time, dose: 6.25 mg/kg/injection, schedule: Q04DX002 (ip), vehicle: saline with Tween-80 100 % of control | endpoint: median survival time, dose: 12.5 mg/kg/injection, schedule: Q04DX002 (ip), vehicle: saline with Tween-80 111 % of control | endpoint: median survival time, dose: 25.0 mg/kg/injection, schedule: Q04DX002 (ip), vehicle: saline with Tween-80 111 % of control | endpoint: median survival time, dose: 25.0 mg/kg/injection, schedule: Q04DX003 (ip), vehicle: saline with Tween-80 94 % of control

CC1=NN(c2ccccc2)C(=O)C1(Br)Br
inactive: endpoint: mean survival time, dose: 25.0 mg/kg/injection, schedule: Q01DX009 (ip), vehicle: saline with Tween-80 96 % of control | [4] 98 % of control

N#Cc1n[nH]c(C2OC(CO)C(O)C2O)c1O (stereo not given)
inactive: endpoint: median survival time, dose: 9.38 mg/kg/injection, schedule: Q01DX005 (ip), vehicle: water 104 % of control | endpoint: median survival time, dose: 18.75 mg/kg/injection, schedule: Q01DX005 (ip), vehicle: water 106 % of control | endpoint: median survival time, dose: 39.5 mg/kg/injection, schedule: Q01DX005 (ip), vehicle: water 109 % of control | endpoint: median survival time, dose: 79.0 mg/kg/injection, schedule: Q01DX005 (ip), vehicle: water 109 % of control | endpoint: median survival time, dose: 158.0 mg/kg/injection, schedule: Q01DX005 (ip), vehicle: water 109 % of control

CCCCC#CC(=O)CCCCC
inactive: [4] 97 % of control | [5] 102 % of control

CCCCCCCCCCCCC(=O)OC
inactive: [5] 107 % of control | [11] 106 % of control | [12] 105 % of control

O=C1c2cc([N+](=O)[O-])ccc2-c2ccc([N+](=O)[O-])cc21
inactive: endpoint: mean survival time, dose: 12.5 mg/kg/injection, schedule: Q01DX009 (ip), vehicle: Klucel (hydroxypropylcellulose) (HPC) 98 % of control | endpoint: mean survival time, dose: 25.0 mg/kg/injection, schedule: Q01DX009 (ip), vehicle: Klucel (hydroxypropylcellulose) (HPC) 95 % of control | endpoint: mean survival time, dose: 50.0 mg/kg/injection, schedule: Q01DX009 (ip), vehicle: Klucel (hydroxypropylcellulose) (HPC) 102 % of control

OCC(F)(F)F
inactive: endpoint: mean survival time, dose: 100.0 mg/kg/injection, schedule: Q01DX009 (ip), vehicle: saline 123 % of control | [1] 108 % of control | [2] 110 % of control | [3] 115 % of control

Oc1ccccc1-c1ccccc1
inactive: [4] 98 % of control | [5] 98 % of control | [11] 98 % of control

CCCCCC/C(C)=C(\C)c1cc(OC)cc(OC)c1
inactive: [1] 96 % of control | [2] 100 % of control

CCCC(=O)C1=C(O)C(CC2=C(O)C(C)(C)C(=O)C(C(=O)CCC)=C2O)=C(O)C(C)(C)C1=O
inactive: endpoint: mean survival time, dose: 100.0 mg/kg/injection, schedule: Q01DX001 (ip), vehicle: saline 98 % of control | endpoint: mean survival time, dose: 200.0 mg/kg/injection, schedule: Q01DX001 (ip), vehicle: saline 101 % of control

CC1=CC(O)(C2(O)C=C(C)CC(C)(C)C2)CC(C)(C)C1 (stereo not given)
inactive: [9] 102 % of control | endpoint: mean survival time, dose: 100.0 mg/kg/injection, schedule: Q04DX003 (ip), vehicle: other 102 % of control | [10] 90 % of control | endpoint: mean survival time, dose: 200.0 mg/kg/injection, schedule: Q04DX003 (ip), vehicle: other 96 % of control | endpoint: mean survival time, dose: 400.0 mg/kg/injection, schedule: Q01DX009 (ip), vehicle: other 88 % of control | endpoint: mean survival time, dose: 400.0 mg/kg/injection, schedule: Q04DX003 (ip), vehicle: other 94 % of control

Cc1ccc(-n2c(O)c(N=Nc3ccccc3)c(=O)n(-c3ccccc3)c2=S)cc1
inactive: endpoint: mean survival time, dose: 100.0 mg/kg/injection, schedule: Q01DX001 (ip), vehicle: saline with Tween-80 100 % of control | endpoint: mean survival time, dose: 200.0 mg/kg/injection, schedule: Q01DX001 (ip), vehicle: saline with Tween-80 100 % of control | endpoint: mean survival time, dose: 400.0 mg/kg/injection, schedule: Q01DX001 (ip), vehicle: saline with Tween-80 86 % of control
